Converted amounts (≈) assume the structure as drawn. The source made the active and inactive calls. The rule behind the calls is not given here.
test system: HEK293; test: Inhibition of full-length huntingtin Q138 mutant (unknown origin) expressed in human T-RexTM-293 cells co-expressing CRE-Luc assessed as decrease of CREB-mediated transcription up to 50 uM after 72 hrs by luciferase reporter gene based luminescence assay; assay type: cell-based; conditions: not given

SMILES	inhibition
CC1=NN(C(=O)c2cccc(C)c2O)C(O)(C(F)(F)F)C1C (stereo not given)	inactive

test system: not listed separately; test: Intrinsic clearance in human liver microsomes at 1 uM in presence of NADPH; assay type: ADME, Microsome; conditions: read-out: CLH

SMILES	microsomal CLint at 1 µM [µL/min/mg]
Cn1cc(N)c(C(=O)N2N=C3CCCC[C@@H]3[C@@]2(O)C(F)(F)F)n1 (racemic)	< 5
Nc1nc(C(=O)N2N=C3CCCC[C@@H]3[C@@]2(O)C(F)(F)F)co1 (racemic)	6.1

The next lines start with the values.

microsomal CLint at 1 µM [µL/min/mg]	SMILES
352	Cc1cccc(C(=O)N2N=C3CCCC[C@@H]3[C@@]2(O)C(F)(F)F)c1O (racemic)
19.2	Cc1ccc(C(=O)N2N=C3CCCC[C@@H]3[C@@]2(O)C(F)(F)F)cn1 (racemic)

test system: not listed separately; test: Permeability of the compound from apical to basolateral side of MDCK cells expressing MDR1 after 120 mins; assay type: ADME, cell-based, Canis lupus familiaris; conditions: dog, read-out: permeability

SMILES	Papp A→B at 2 h [×10⁻⁶ cm/s]
Cn1cc(N)c(C(=O)N2N=C3CCCC[C@@H]3[C@@]2(O)C(F)(F)F)n1 (racemic)	17.2
Nc1nc(C(=O)N2N=C3CCCC[C@@H]3[C@@]2(O)C(F)(F)F)co1 (racemic)	29.1

Continued, values first:

Papp A→B at 2 h [×10⁻⁶ cm/s]	SMILES
31.6	Cc1cccc(C(=O)N2N=C3CCCC[C@@H]3[C@@]2(O)C(F)(F)F)c1O (racemic)
43.4	Cc1ccc(C(=O)N2N=C3CCCC[C@@H]3[C@@]2(O)C(F)(F)F)cn1 (racemic)

test system: HEK293; test: Inhibition of full-length huntingtin Q138 mutant (unknown origin) expressed in human T-RexTM-293 cells co-expressing CRE-Luc assessed as decrease of CREB-mediated transcription after 72 hrs by luciferase reporter gene based luminescence assay relative to control; assay type: cell-based; conditions: not given

SMILES	Emax [%]
Cc1cccc(C(=O)N2N=C3CCCC[C@@H]3[C@@]2(O)C(F)(F)F)c1O (racemic)	32
Cc1ccc(C(=O)N2N=C3CCCC[C@@H]3[C@@]2(O)C(F)(F)F)cn1 (racemic)	43
Cn1cc(N)c(C(=O)N2N=C3CCCC[C@@H]3[C@@]2(O)C(F)(F)F)n1 (racemic)	30
Nc1nc(C(=O)N2N=C3CCCC[C@@H]3[C@@]2(O)C(F)(F)F)co1 (racemic)	21

test system: MDCK; test: Efflux ratio of permeability […] in MDCK cells expressing MDR1 after 120 mins; assay type: ADME, cell-based, Canis lupus familiaris; conditions: dog, 2 h

SMILES	Ratio
Cn1cc(N)c(C(=O)N2N=C3CCCC[C@@H]3[C@@]2(O)C(F)(F)F)n1 (racemic)	1.6
Nc1nc(C(=O)N2N=C3CCCC[C@@H]3[C@@]2(O)C(F)(F)F)co1 (racemic)	1.1

Now from value to molecule:

Ratio	SMILES
0.8	Cc1cccc(C(=O)N2N=C3CCCC[C@@H]3[C@@]2(O)C(F)(F)F)c1O (racemic)
1.5	Cc1ccc(C(=O)N2N=C3CCCC[C@@H]3[C@@]2(O)C(F)(F)F)cn1 (racemic)

test system: not listed separately; test: Inhibition of full-length huntingtin Q138 mutant (unknown origin) expressed in human T-RexTM-293 cells co-expressing CRE-Luc assessed as decrease of CREB-mediated transcription after 72 hrs by luciferase reporter gene based luminescence assay; assay type: cell-based; conditions: HEK293, 72 h

SMILES	EC50 [µM]
CC1=NN(C(=O)c2cccc(C)c2O)C(O)(C(F)(F)F)C1C (stereo not given)	> 50
Cn1cc(N)c(C(=O)N2N=C3CCCC[C@@H]3[C@@]2(O)C(F)(F)F)n1 (racemic)	6.6
Nc1nc(C(=O)N2N=C3CCCC[C@@H]3[C@@]2(O)C(F)(F)F)co1 (racemic)	17.1

The remaining lines, values ahead:

EC50 [µM]	SMILES
5.2	Cc1cccc(C(=O)N2N=C3CCCC[C@@H]3[C@@]2(O)C(F)(F)F)c1O (racemic)
3.7	Cc1ccc(C(=O)N2N=C3CCCC[C@@H]3[C@@]2(O)C(F)(F)F)cn1 (racemic)

test system: not listed separately; test: Intrinsic clearance in mouse liver microsomes at 1 uM in presence of NADPH; assay type: ADME, Microsome; conditions: read-out: CLH

SMILES	microsomal CLint at 1 µM [µL/min/mg]
Cn1cc(N)c(C(=O)N2N=C3CCCC[C@@H]3[C@@]2(O)C(F)(F)F)n1 (racemic)	22.9
Nc1nc(C(=O)N2N=C3CCCC[C@@H]3[C@@]2(O)C(F)(F)F)co1 (racemic)	21.1

Other lines, results leading:

microsomal CLint at 1 µM [µL/min/mg]	SMILES
> 700	Cc1cccc(C(=O)N2N=C3CCCC[C@@H]3[C@@]2(O)C(F)(F)F)c1O (racemic)
174	Cc1ccc(C(=O)N2N=C3CCCC[C@@H]3[C@@]2(O)C(F)(F)F)cn1 (racemic)

test system: not listed separately; test: Stability of the compound at pH 3 to 7.4 assessed as dehydration; assay type: physicochemical; conditions: buffer

SMILES	Stability
Cn1cc(N)c(C(=O)N2N=C3CCCC[C@@H]3[C@@]2(O)C(F)(F)F)n1 (racemic)	Stable
Nc1nc(C(=O)N2N=C3CCCC[C@@H]3[C@@]2(O)C(F)(F)F)co1 (racemic)	Stable

The remaining lines, values ahead:

Stability	SMILES
Stable	Cc1cccc(C(=O)N2N=C3CCCC[C@@H]3[C@@]2(O)C(F)(F)F)c1O (racemic)
Stable	Cc1ccc(C(=O)N2N=C3CCCC[C@@H]3[C@@]2(O)C(F)(F)F)cn1 (racemic)

test system: not listed separately; test: Kinetic solubility of the compound at pH 7.4; assay type: physicochemical; conditions: buffer, read-out: Kinetic_solubility

SMILES	solubility kinetic [µM]
CC1=NN(C(=O)c2cccc(C)c2O)C(O)(C(F)(F)F)C1C (stereo not given)	5 (≈ 1.58 µg/mL)
Cn1cc(N)c(C(=O)N2N=C3CCCC[C@@H]3[C@@]2(O)C(F)(F)F)n1 (racemic)	205 (≈ 67.9 µg/mL)
Nc1nc(C(=O)N2N=C3CCCC[C@@H]3[C@@]2(O)C(F)(F)F)co1 (racemic)	153 (≈ 48.7 µg/mL)

Other lines, results leading:

solubility kinetic [µM]	SMILES
101 (≈ 34.6 µg/mL)	Cc1cccc(C(=O)N2N=C3CCCC[C@@H]3[C@@]2(O)C(F)(F)F)c1O (racemic)
212 (≈ 69.4 µg/mL)	Cc1ccc(C(=O)N2N=C3CCCC[C@@H]3[C@@]2(O)C(F)(F)F)cn1 (racemic)
